Assay results from patent US20100152188A1, “Novel Heterocyclic Compounds” (priority 2005, published 2010).
Where two headings read alike, the source gives them in different places.

What was measured:
[1] = system: HCT116; experiment: Anti-cancer screen (MTT), HCT116; assay type: cell-based; conditions: Homo sapiens, HCT-116, 48 hours with compound, tested at 0.01-100 µM
Experimental: (§1) Experimental drugs are screened for anti-cancer activity in three cell lines for their GI50, TGI and LC50 values (using five concentrations for each compound). The cell lines are maintained in DMEM containing 10% fetal bovine serum. 96 well micro titer plates are inoculated with cells in 100 µL for 24 hours at 37° C., 5% CO2, 95% air and 100% relative humidity. 5000 HCT 116 cells/well, 5000 NCIH 460 cells/well and 5000 U251 cells/well are plated. A separate plate with these cell lines is also inoculated to determine cell viability before the addition of the compounds (T0).
(§2) Following 24-hour incubation, experimental drugs are added to the 96 well plates. Each plate contains one of the above cell lines and the following in triplicate: five different concentrations (0.01, 0.1, 1, 10 and 100 µM) of four different compounds, appropriate dilutions of a cytotoxic standard and control (untreated) wells. Compounds are dissolved in DMSO to make 20 mM stock solutions on the day of drug addition and frozen at −20° C. Serial dilutions of these 20 mM stock solutions are made in complete growth medium such that 100 µL of these drug solutions in medium, of final concentrations equaling 0.01, 0.1, 1, 10 and 100 µM can be added to the cells in triplicate. Standard drugs whose anti-cancer activity has been well documented and which are regularly used are doxorubicin and SAHA.
(§3) For T0 measurement, 24 hours after seeding the cells, 10 µL of 3-(4,5-Dimethyl-2-thiazolyl)-2,5-diphenyl-2H-tetrazolium (MTT) solution per well is added and incubation carried out for 3 hours at 37° C., 5% CO2, 95% air and 100% relative humidity, protected from light. Cells incubated with compounds for 48 hours are treated similarly except with the addition of 20 µl MTT solution per well and a subsequent incubation under the same conditions. After 3 hours of MTT incubation, well contents are aspirated carefully followed by addition of 150 µL DMSO per well. Plates are agitated to ensure solution of the formazan crystals in DMSO and absorbance read at 570 nm.
(§4) Percent growth is calculated for each compound's concentration relative to the control and zero measurement wells (T0; viability right before compound addition). If a test well's O.D. value is greater than the T0 measurement for that cell line
(§5) %Growth=(test−zero)/(control−zero)×100
(§6) If a test well's O.D. value is lower than the T0 measurement for that cell line, then,
(§7) %Growth=(test−zero)/zero×100

[2] = system: NCIH460, HCT116, MDAMB-231/U 251; experiment: Anti-cancer screen, mean GI50 over the cell lines; assay type: cell-based; conditions: in µM
Experimental: as §1, §2, §3, §4

[3] = system: MDAMB-231/U 251; experiment: Anti-cancer screen (MTT), MDAMB-231/U 251; assay type: cell-based; conditions: for CC50: read-out: MDAMB-231/U 251 LC50
Experimental: as §1, §2, §3, §4, §5, §6, §7

[4] = system: NCIH460; experiment: Anti-cancer screen (MTT), NCIH460; assay type: cell-based; conditions: Homo sapiens, NCI-H460, 48 hours with compound, tested at 0.01-100 µM
Experimental: as §1, §2, §3, §4, §5, §6, §7

[5] = system: HDAC; experiment: HDAC inhibition; assay type: biochemical; conditions: for HDAC Inhibition 1 μM: compound at 1 μM; for HDAC Inhibition 10 μM: compound at 10 μM
[6] = 48 hours with compound, MTT, tested at 0.01-100 µM

Molecule O=C(Cc1csc(NC(=O)OCc2cccnc2)n1)NO [Example 1, pyridin-3-ylmethyl{4-[2-(hydroxyamino)-2-oxoethyl]-1,3-thiazol-2-yl}carbamate] has a GI50 [1] of 0.25 µM, an IC (TGI) [1] of 4 µM and an LC50 (concentration giving 50% net cell kill relative to T0) [1] of over 100 µM. For the same molecule, the “Mean GI50” value [2] was 0.4, the CC50 ([3]; 48 h) was over 100 µM and the GI50 [3, 6] was 1 µM. The IC (TGI) [3, 6] was over 100 µM, the GI50 [4] was 0.01 µM and the IC (TGI) [4] was 0.5 µM. The LC50 [4] was over 100 µM, the “HDAC Inhibition 1 μM” value [5] was 1.3 and the “HDAC Inhibition 10 μM” value [5] was 31.5.
With O=C(Cc1csc(NC(=O)OCc2cccs2)n1)NO [Example 2, 2-Thienylmethyl{4-[2-(hydroxyamino)-2-oxoethyl]-1,3-thiazol-2-yl}carbamate] the GI50 [1] was over 100 µM, the IC (TGI) [1] was over 100 µM and the LC50 (concentration giving 50% net cell kill relative to T0) [1] was over 100 µM. For the same molecule, the “Mean GI50” value [2] was over 100, the CC50 ([3]; 48 h) was over 100 µM and the GI50 [3, 6] was over 100 µM. The IC (TGI) [3, 6] was over 100 µM, the GI50 [4] was over 100 µM and the IC (TGI) [4] was over 100 µM. For the same molecule, the LC50 [4] was over 100 µM, the “HDAC Inhibition 1 μM” value [5] was 0.8 and the “HDAC Inhibition 10 μM” value [5] was 22.42.
Molecule CNC(=O)c1ccc(CNC(=O)OCC2COc3ccccc3O2)cc1 (stereo not shown) [Example 42, 2,3-Dihydro-1,4-benzodioxin-2-ylmethyl{4-[(methylamino)carbonyl]benzyl}carbamate] has a GI50 [1] of over 100 µM, an IC (TGI) [1] of over 100 µM and an LC50 (concentration giving 50% net cell kill relative to T0) [1] of over 100 µM. For the same molecule, the “Mean GI50” value [2] was over 100, the CC50 ([3]; 48 h) was over 100 µM and the GI50 [3, 6] was 0.7 µM. The IC (TGI) [3, 6] was over 100 µM, the GI50 [4] was over 100 µM and the IC (TGI) [4] was over 100 µM. For the same molecule, the LC50 [4] was over 100 µM.
CONC(=O)c1ccc(CNC(=O)OCc2c(F)c(F)c(F)c(F)c2F)cc1 [Example 44, Pentafluorobenzyl(4-{[methoxyamino]carbonyl}benzyl)carbamate] showed a GI50 [1] of 21 µM, an IC (TGI) [1] of over 100 µM and an LC50 (concentration giving 50% net cell kill relative to T0) [1] of over 100 µM. The “Mean GI50” value [2] was 22.67, the CC50 ([3]; 48 h) was over 100 µM and the GI50 [3, 6] was 5 µM. It also gave an IC (TGI) [3, 6] of 9 µM, a GI50 [4] of 42 µM and an IC (TGI) [4] of over 100 µM. The LC50 [4] was over 100 µM.
With O=C(NCc1ccc(C(=O)Nc2nnc(C3CC3)s2)cc1)OCc1c(F)c(F)c(F)c(F)c1F [Example 56, Pentafluorobenzyl(4-{[(5-cyclopropyl-1,3,4-thiadiazol-2-yl)amino]carbonyl}benzyl)carbamate] the GI50 [1] was 0.5 µM, the IC (TGI) [1] was over 100 µM and the LC50 (concentration giving 50% net cell kill relative to T0) [1] was over 100 µM. For the same molecule, the “Mean GI50” value [2] was 0.5, the CC50 ([3]; 48 h) was 65 µM and the GI50 [3, 6] was 0.8 µM. For the same molecule, the IC (TGI) [3, 6] was 7 µM, the GI50 [4] was 0.3 µM and the IC (TGI) [4] was 0.8 µM. For the same molecule, the LC50 [4] was over 100 µM.
For O=C(NCc1ccc(C(=O)NCCO)cc1)OCc1cccs1 [Example 61, 2-Thienylmethyl(4-{[(2-hydroxyethyl)amino]carbonyl}benzyl)carbamate], the GI50 [1] was over 100 µM, the IC (TGI) [1] was over 100 µM and the LC50 (concentration giving 50% net cell kill relative to T0) [1] was over 100 µM. For the same molecule, the “Mean GI50” value [2] was over 100, the CC50 ([3]; 48 h) was over 100 µM and the GI50 [3, 6] was 65 µM. It also gave an IC (TGI) [3, 6] of over 100 µM, a GI50 [4] of over 100 µM and an IC (TGI) [4] of over 100 µM. For the same molecule, the LC50 [4] was over 100 µM.
Work on O=C(NCc1ccc(C(=O)N2CCN(Cc3ccc4c(c3)OCO4)CC2)cc1)OCc1c(F)cc(F)cc1F [Example 62, 2,4,6-Trifluorobenzyl(4-{[4-(1,3-benzodioxol-5-ylmethyl)piperazin-1-yl]carbonyl}benzyl)carbamate] yielded a GI50 [1] of 3 µM, an IC (TGI) [1] of over 100 µM and an LC50 (concentration giving 50% net cell kill relative to T0) [1] of over 100 µM. For the same molecule, the “Mean GI50” value [2] was 1.7, the CC50 ([3]; 48 h) was over 100 µM and the GI50 [3, 6] was 2 µM. The IC (TGI) [3, 6] was 10 µM, the GI50 [4] was 0.1 µM and the IC (TGI) [4] was 8.5 µM. The LC50 [4] was over 100 µM.
O=C(NCc1ccc(C(=O)Nc2ncc([N+](=O)[O-])s2)cc1)OCc1cccs1 [Example 69, 2-thienylmethyl(4-{[(5-nitro-1,3-thiazol-2yl)amino]carbonyl}benzyl)carbamate] was tested, and the “Mean GI50” value [2] was 40.33, the “HDAC Inhibition 1 μM” value [5] was 13.14 and the “HDAC Inhibition 10 μM” value [5] was 12.38.
With O=C(NCc1ccc(C(=O)NOCc2ccccc2)cc1)OCc1cccs1 [Example 73, 2-Thienylmethyl(4-{[(benzyloxy)amino]carbonyl}benzyl)carbamate] the “Mean GI50” value [2] was over 100, the “HDAC Inhibition 1 μM” value [5] was 6.60 and the “HDAC Inhibition 10 μM” value [5] was 12.42.
Molecule CC(=O)N(O)C(=O)Cc1csc(NC(=O)OCc2cc(Br)cs2)n1 [Example 79, (4-Bromo-2-thienyl)methyl(4-{2-[acetyl(hydroxy)amino]-2-oxoethyl}-1,3-thiazol-2-yl)carbamate] has a GI50 [1] of 30 µM, an IC (TGI) [1] of 65 µM and a CC50 ([1]; read-out: HCT116 LC50) of 95 µM. The “Mean GI50” value [2] was 20.1, the GI50 [3, 6] was 0.4 µM and the IC (TGI) [3, 6] was 52 µM. For the same molecule, the CC50 [3, 6] was 100 µM, the GI50 [4] was 30 µM and the IC (TGI) [4] was 74 µM. The LC50 [4] was over 100 µM.
In the case of COC(=O)ON(C)C(=O)c1ccc(CNC(=O)OCc2cccs2)cc1 [Example 85, 2-Thienylmethyl[4-({[(methoxycarbonyl)oxy](methyl)amino}carbonyl)benzyl]carbamate], the “Mean GI50” value [2] is reported as 10.67, the “HDAC Inhibition 1 μM” value [5] is reported as 3.18 and the “HDAC Inhibition 10 μM” value [5] is reported as 7.89.
With COC(=O)N(OCc1ccccc1)C(=O)c1ccc(CNC(=O)OCc2cccs2)cc1 [Example 86, 2-Thienylmethyl[4-({(N-benzyloxy)(N-methoxycarbonyl)amino}carbonyl)benzyl]carbamate] the “Mean GI50” value [2] was over 100, the “HDAC Inhibition 1 μM” value [5] was 5.98 and the “HDAC Inhibition 10 μM” value [5] was −10.22.
For O=C(CCCNC(=O)Cc1csc(NC(=O)OCc2cccnc2)n1)NO [Example 88, Pyridin-3-ylmethyl[4-(2-{[4-(hydroxyamino)-4-oxobutyl]amino}-2-oxoethyl)-1,3-thiazol-2-yl]carbamate], the GI50 [1] was over 100 µM, the IC (TGI) [1] was over 100 µM and the LC50 (concentration giving 50% net cell kill relative to T0) [1] was over 100 µM. For the same molecule, the “Mean GI50” value [2] was over 100, the CC50 ([3]; 48 h) was over 100 µM and the GI50 [3, 6] was 6 µM. The IC (TGI) [3, 6] was over 100 µM, the GI50 [4] was over 100 µM and the IC (TGI) [4] was over 100 µM. For the same molecule, the LC50 [4] was over 100 µM.
O=C(CCCNC(=O)Cc1csc(NC(=O)OCc2c(F)c(F)c(F)c(F)c2F)n1)NO [Example 92, Pentafluorobenzyl[4-(2-{[4-(hydroxyamino)-4-oxobutyl]amino}-2-oxoethyl)-1,3-thiazol-2-yl]carbamate] gave a GI50 [1] of over 100 µM, an IC (TGI) [1] of over 100 µM and an LC50 (concentration giving 50% net cell kill relative to T0) [1] of over 100 µM. For the same molecule, the “Mean GI50” value [2] was over 100, the CC50 ([3]; 48 h) was over 100 µM and the GI50 [3, 6] was 30 µM. For the same molecule, the IC (TGI) [3, 6] was 50 µM, the GI50 [4] was over 100 µM and the IC (TGI) [4] was over 100 µM. The LC50 [4] was over 100 µM.
For O=C(CCCCCNC(=O)Cc1csc(NC(=O)OCc2c(F)c(F)c(F)c(F)c2F)n1)NO [Example 94, Pentafluorobenzyl[4-(2-{[6-(hydroxyamino)-6-oxohexyl]amino}-2-oxoethyl)-1,3-thiazol-2-yl]carbamate], the GI50 [1] was 23 µM, the IC (TGI) [1] was 62 µM and the LC50 (concentration giving 50% net cell kill relative to T0) [1] was 84 µM. For the same molecule, the “Mean GI50” value [2] was 25.66, the CC50 ([3]; 48 h) was 84 µM and the GI50 [3, 6] was 19 µM. The IC (TGI) [3, 6] was 50 µM, the GI50 [4] was 35 µM and the IC (TGI) [4] was 67 µM. It also gave an LC50 [4] of over 100 µM.
O=C(CCCCCNC(=O)Cc1csc(NC(=O)OCc2ccncc2)n1)NO [Example 98, Pyridin-4-ylmethyl[4-(2-{[6-(hydroxyamino)-6-oxohexyl]amino}-2-oxoethyl)-1,3-thiazol-2-yl]carbamate] was tested, and the “Mean GI50” value [2] was over 100, the “HDAC Inhibition 1 μM” value [5] was 94.01 and the “HDAC Inhibition 10 μM” value [5] was 129.59.
With O=C(CCCCCNC(=O)c1ccc(CNC(=O)OCc2cccs2)cc1)Nc1nnc(C2CC2)s1 [Example 103] the GI50 [1] was 40 µM, the IC (TGI) [1] was over 100 µM and the LC50 (concentration giving 50% net cell kill relative to T0) [1] was over 100 µM. For the same molecule, the “Mean GI50” value [2] was 33.5, the CC50 ([3]; 48 h) was 85 µM and the GI50 [3, 6] was 0.4 µM. The IC (TGI) [3, 6] was 18 µM, the GI50 [4] was 60 µM and the IC (TGI) [4] was over 100 µM. For the same molecule, the LC50 [4] was over 100 µM.
In the case of N#Cc1ccc(NC(=O)Nc2cccc(NC(=O)c3ccc(CNC(=O)OCc4cccs4)cc3)c2)cc1 [Example 105, 2-Thienylmethyl[4-({[3-({[(4-cyanophenyl)amino]carbonyl}amino)phenyl]amino}carbonyl)benzyl]carbamate], the “Mean GI50” value [2] is reported as 6.73, the “HDAC Inhibition 1 μM” value [5] is reported as 11.02 and the “HDAC Inhibition 10 μM” value [5] is reported as 12.74.
